Experiments:
human RXFP3 [1] = target: T1, human RXFP3 (Homo sapiens, UniProt Q9NSD7); experiment: Receptor binding assay, competition with NanoLuc-conjugated R3/I5 tracer
T1 construct: expressed in transfected cells; host or cells: HEK293T
T1 sequence (Q9NSD7 1-469): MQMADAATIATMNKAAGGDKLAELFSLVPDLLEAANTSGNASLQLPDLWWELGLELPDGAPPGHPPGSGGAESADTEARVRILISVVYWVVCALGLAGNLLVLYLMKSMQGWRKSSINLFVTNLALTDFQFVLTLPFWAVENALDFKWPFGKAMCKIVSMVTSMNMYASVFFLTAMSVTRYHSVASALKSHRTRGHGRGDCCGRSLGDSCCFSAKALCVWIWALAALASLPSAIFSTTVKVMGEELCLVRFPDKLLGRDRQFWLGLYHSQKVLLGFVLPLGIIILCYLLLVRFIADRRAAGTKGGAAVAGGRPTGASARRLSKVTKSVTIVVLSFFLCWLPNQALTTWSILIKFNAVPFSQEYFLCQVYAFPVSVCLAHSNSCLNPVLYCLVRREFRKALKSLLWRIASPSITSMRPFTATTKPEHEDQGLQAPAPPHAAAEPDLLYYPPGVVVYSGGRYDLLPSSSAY
Procedure: (§1) Figure 3 Receptor binding activities of the mature INSL5 and R3/I5 mutants towards RXFP3 and RXFP4. A NanoLuc-conjugated R3/I5 peptide was used as tracer and HEK293T cells transiently overexpressing human RXFP3 or human RXFP4 were used as receptor source. The tracer concentration used in these assays was 0.5 nM. The nonspecific binding was obtained by competition with 1.0 μM of relaxin-3. The measured data were expressed as mean ± SE (n = 3) and fitted to sigmoidal curves using the software SigmaPlot 10.0.
(§2) The receptor binding assays of the mature INSL5 and R3/I5 mutants were carried out using a NanoLuc-conjugated R3/I5 peptide as tracer and the human embryonic kidney (HEK) 293T cells transiently overexpressing human RXFP3 or human RXFP4 as receptor source. Nonspecific binding was obtained by competition with 1.0 μM of human relaxin-3. Briefly, HEK293T cells were transiently transfected with the expression construct of human RXFP3 or human RXFP4. Next day, the transfected cells were trypsinised, seeded into a 96-well plate, and continuously cultured for 24–36 h to confluence. To start binding assay, the medium was removed and the binding solution (serum-free DMEM medium plus 1% bovine serum albumin) containing 0.5 nM of the NanoLuc-conjugated R3/I5 tracer and varied concentrations of competitor was added (100 μl/well). After incubation at 21 °C for 2 h, the binding solution was removed and the cells were washed twice by ice-cold phosphate-buffered saline (200 μl/well for each wash). Thereafter, the cells were lysed by lysis solution (100 μl/well, from Promega, Madison, WI, USA) and the cell lysate was transferred to a white opaque 96-well plate (50 μl/well). After mixing with the freshly diluted substrate (50 μl/well), bioluminescence was immediately measured on a SpectraMax M5 plate reader (Molecular Devices, Sunnyvale, CA, USA) using the luminescence mode. The measured bioluminescence data were expressed as mean ± SE (n = 3) and fitted to sigmoidal curves using the SigmaPlot10.0 software.

human RXFP4 [2] = target: T2, human RXFP4 (Homo sapiens, UniProt Q8TDU9); experiment: as above
T2 construct: expressed in transfected cells; host or cells: HEK293T
T2 sequence (Q8TDU9 whole entry): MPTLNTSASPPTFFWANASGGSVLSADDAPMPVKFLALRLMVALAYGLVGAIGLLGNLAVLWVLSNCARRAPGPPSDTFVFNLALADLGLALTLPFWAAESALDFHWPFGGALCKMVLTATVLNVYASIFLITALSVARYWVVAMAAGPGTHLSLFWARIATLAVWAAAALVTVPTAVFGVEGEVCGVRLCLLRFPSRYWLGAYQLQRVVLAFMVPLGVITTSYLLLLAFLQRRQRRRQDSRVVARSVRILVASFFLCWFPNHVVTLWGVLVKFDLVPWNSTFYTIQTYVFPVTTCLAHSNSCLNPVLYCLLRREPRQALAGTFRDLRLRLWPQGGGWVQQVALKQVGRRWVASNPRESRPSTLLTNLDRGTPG
Procedure: as §1, §2

human RXFP3 [3] = target: T1, human RXFP3; experiment: Receptor activation assay, CRE-controlled NanoLuc reporter; assay type: cell-based; details: for fold lower activation potency towards RXFP3 compared with wild-type R3/I5: lower than wild-type R3/I5
Procedure: (§3) Figure 4 Receptor activation activities of the mature INSL5 and R3/I5 mutants towards RXFP3 and RXFP4. HEK293T cells transiently cotransfected by human RXFP3 or human RXFP4 and a CRE-controlled NanoLuc reporter were used for the activation assays. The measured data were expressed as mean ± SE (n = 3) and fitted to sigmoidal or linear curves using the software SigmaPlot 10.0.
(§4) The receptor activation assays of the mature INSL5 and R3/I5 mutants were carried out using a cAMP-response element (CRE)-controlled NanoLuc reporter according to our previous procedure. Briefly, HEK293T cells were transiently cotransfected with the expression construct of human RXFP3 or human RXFP4 and the CRE-controlled NanoLuc reporter vector pNL1.2/CRE. Next day, the transfected cells were trypsinised, seeded into a 96-well plate, and continuously cultured for 24–36 h to ~90% confluence. To start activation assay, the medium was removed and the activation solution (serum-free DMEM medium plus 1% bovine serum albumin) containing 1.0 μM of forskolin and varied concentrations of peptide was added (100 μl/well). After being continuously cultured at 37 °C for 4 h, the activation solution was removed and the cells were lysed by lysis solution (100 μl/well, from Promega). The cell lysate was then transferred to a white opaque 96-well plate (50 μl/well), mixed with the freshly diluted substrate (50 μl/well), and bioluminescence was immediately measured on a SpectraMax M5 plate reader (Molecular Devices) using the luminescence mode. The measured bioluminescence data were expressed as mean ± SE (n = 3) and fitted to sigmoidal or linear curves using the SigmaPlot10.0 software.

human RXFP4 [4] = target: T2, human RXFP4; experiment: as above; assay type: cell-based
Procedure: as §3, §4

insulin-like peptide 5 (Insulin-like peptide INSL5 B … KESVRLCGLEYIRTVIYICASSRW; Insulin-like peptide INSL5 A … QDLQTLCCTDGCSMTDLSALC; UniProt Q9Y5Q6 23-46; Q9Y5Q6 115-135, looked up) [recombinant mature two-chain human INSL5, cognate agonist of RXFP4, reference compound]
pIC50 RXFP3 (human RXFP3 [1]; HEK293T cells transiently overexpressing human RXFP3, 0.5 nM NanoLuc-conjugated R3/I5 tracer, 21 °C, 2 h, mean ± SE, n = 3, SEM): 7.26 ± 0.05 | fold lower binding affinity for RXFP3 than relaxin-3 (human RXFP3 [1]; lower than relaxin-3): ~ 27 fold | pIC50 RXFP4 (human RXFP4 [2]; HEK293T cells transiently overexpressing human RXFP4, 0.5 nM NanoLuc-conjugated R3/I5 tracer, 21 °C, 2 h, mean ± SE, n = 3, SEM): 7.75 ± 0.02 | activation potency towards RXFP3, result in words (human RXFP3 [3]; CRE-controlled NanoLuc reporter, HEK293T cells, human RXFP3): no detectable activation potency | pEC50 RXFP4 (human RXFP4 [4]; HEK293T cells cotransfected with human RXFP4 and CRE-controlled NanoLuc reporter, 1.0 μM forskolin, 37 °C, 4 h, mean ± SE, n = 3, SEM): 9.36 ± 0.06

CC[C@H](C)[C@@H]1NC(=O)[C@H](Cc2ccccc2)NC(=O)[C@H](CCC(=O)O)NC(=O)[C@H](CC(C)C)NC(=O)CNC(=O)[C@@H](NC(=O)[C@H](CC(C)C)NC(=O)[C@H](CCCCN)NC(=O)[C@@H](NC(=O)CNC(=O)[C@H](Cc2ccc(O)cc2)NC(=O)[C@@H]2CCCN2C(=O)[C@H](C)NC(=O)[C@H](C)NC(=O)[C@@H](N)CCCNC(=N)N)C(C)C)CSSC[C@@H]2NC(=O)[C@@H](NC(=O)[C@H](CC(C)C)NC(=O)[C@@H](NC(=O)[C@H](CCC(N)=O)NC(=O)[C@H](CC(C)C)NC(=O)[C@H](CC(=O)O)NC(=O)[C@@H](N)CCC(N)=O)[C@@H](C)O)CSSC[C@H](NC(=O)CNC(=O)[C@H](CC(=O)O)NC(=O)[C@H]([C@@H](C)O)NC2=O)C(=O)N[C@@H](CO)C(=O)N[C@@H](CCSC)C(=O)N[C@@H]([C@@H](C)O)C(=O)N[C@@H](CC(=O)O)C(=O)N[C@@H](CC(C)C)C(=O)N[C@@H](CO)C(=O)N[C@@H](C)C(=O)N[C@@H](CC(C)C)C(=O)N[C@H](C(=O)O)CSSC[C@@H](C(=O)NCC(=O)NCC(=O)N[C@@H](CO)C(=O)N[C@@H](CCCNC(=N)N)C(=O)N[C@@H](Cc2c[nH]c3ccccc23)C(=O)O)NC(=O)[C@H]([C@@H](C)O)NC(=O)[C@H](Cc2ccccc2)NC(=O)[C@H]([C@@H](C)CC)NC(=O)[C@H](C(C)C)NC(=O)[C@H](C)NC(=O)[C@H](CCCNC(=N)N)NC1=O [[R(B12)L]R3/I5]
fold lower binding potency towards RXFP3 compared with wild-type R3/I5 (human RXFP3 [1]; lower than wild-type R3/I5): ~ 110 fold | fold lower activation potency towards RXFP3 compared with wild-type R3/I5 (human RXFP3 [3]): ~ 1600 fold

CC[C@H](C)[C@@H]1NC(=O)[C@H](Cc2ccccc2)NC(=O)[C@H]([C@@H](C)CC)NC(=O)[C@H](C(C)C)NC(=O)[C@H]([C@@H](C)O)NC(=O)[C@H](CCCNC(=N)N)NC(=O)[C@H]([C@@H](C)CC)NC(=O)[C@H](Cc2ccc(O)cc2)NC(=O)[C@H](CCC(=O)O)NC(=O)[C@H](CCCNC(=N)N)NC(=O)CNC(=O)[C@@H](NC(=O)[C@H](CC(C)C)NC(=O)[C@H](CCCNC(=N)N)NC(=O)[C@@H](NC(=O)[C@H](CO)NC(=O)[C@H](Cc2ccc(O)cc2)NC(=O)[C@@H](N)CCCCN)C(C)C)CSSC[C@@H]2NC(=O)[C@@H](NC(=O)[C@H](CC(C)C)NC(=O)[C@@H](NC(=O)[C@H](CCC(N)=O)NC(=O)[C@H](CC(C)C)NC(=O)[C@H](CC(=O)O)NC(=O)[C@@H](N)CCC(N)=O)[C@@H](C)O)CSSC[C@H](NC(=O)CNC(=O)[C@H](CC(=O)O)NC(=O)[C@H]([C@@H](C)O)NC2=O)C(=O)N[C@@H](CO)C(=O)N[C@@H](CCSC)C(=O)N[C@@H]([C@@H](C)O)C(=O)N[C@@H](CC(=O)O)C(=O)N[C@@H](CC(C)C)C(=O)N[C@@H](CO)C(=O)N[C@@H](C)C(=O)N[C@@H](CC(C)C)C(=O)N[C@H](C(=O)O)CSSC[C@@H](C(=O)NCC(=O)NCC(=O)N[C@@H](CO)C(=O)N[C@@H](CCCNC(=N)N)C(=O)N[C@@H](Cc2c[nH]c3ccccc23)C(=O)O)NC1=O
fold higher activation potency towards RXFP3 than its parent mutant (human RXFP3 [3]; higher than the 4-mutation INSL5): ~ 5 fold | fold lower activation potency towards RXFP3 than relaxin-3 (human RXFP3 [3]; lower than relaxin-3): ~ 20 fold

CC[C@H](C)[C@@H]1NC(=O)[C@H](Cc2ccccc2)NC(=O)[C@H](CCC(=O)O)NC(=O)[C@H](CCCNC(=N)N)NC(=O)CNC(=O)[C@@H](NC(=O)[C@H](CC(C)C)NC(=O)[C@H](CCCCN)NC(=O)[C@@H](NC(=O)CNC(=O)[C@H](CCC(=O)O)NC(=O)[C@@H]2CCCN2C(=O)[C@H](C)NC(=O)[C@H](C)NC(=O)[C@@H](N)CCCNC(=N)N)C(C)C)CSSC[C@@H]2NC(=O)[C@@H](NC(=O)[C@H](CC(C)C)NC(=O)[C@@H](NC(=O)[C@H](CCC(N)=O)NC(=O)[C@H](CC(C)C)NC(=O)[C@H](CC(=O)O)NC(=O)[C@@H](N)CCC(N)=O)[C@@H](C)O)CSSC[C@H](NC(=O)CNC(=O)[C@H](CC(=O)O)NC(=O)[C@H]([C@@H](C)O)NC2=O)C(=O)N[C@@H](CO)C(=O)N[C@@H](CCSC)C(=O)N[C@@H]([C@@H](C)O)C(=O)N[C@@H](CC(=O)O)C(=O)N[C@@H](CC(C)C)C(=O)N[C@@H](CO)C(=O)N[C@@H](C)C(=O)N[C@@H](CC(C)C)C(=O)N[C@H](C(=O)O)CSSC[C@@H](C(=O)NCC(=O)NCC(=O)N[C@@H](CO)C(=O)N[C@@H](CCCNC(=N)N)C(=O)N[C@@H](Cc2c[nH]c3ccccc23)C(=O)O)NC(=O)[C@H]([C@@H](C)O)NC(=O)[C@H](Cc2ccccc2)NC(=O)[C@H]([C@@H](C)CC)NC(=O)[C@H](C(C)C)NC(=O)[C@H](C)NC(=O)[C@H](CCCNC(=N)N)NC1=O [[Y(B5)E]R3/I5]
fold lower activation potency towards RXFP3 compared with wild-type R3/I5 (human RXFP3 [3]): ~ 6 fold

CC[C@H](C)[C@@H]1NC(=O)[C@H](Cc2ccccc2)NC(=O)[C@H](CCC(=O)O)NC(=O)[C@H](CCCNC(=N)N)NC(=O)CNC(=O)[C@@H](NC(=O)[C@H](CC(C)C)NC(=O)[C@H](CCCCN)NC(=O)[C@@H](NC(=O)CNC(=O)[C@H](Cc2ccc(O)cc2)NC(=O)[C@@H]2CCCN2C(=O)[C@H](C)NC(=O)[C@H](C)NC(=O)[C@@H](N)CCCNC(=N)N)C(C)C)CSSC[C@@H]2NC(=O)[C@@H](NC(=O)[C@H](CC(C)C)NC(=O)[C@@H](NC(=O)[C@H](CCC(N)=O)NC(=O)[C@H](CC(C)C)NC(=O)[C@H](CC(=O)O)NC(=O)[C@@H](N)CCC(N)=O)[C@@H](C)O)CSSC[C@H](NC(=O)CNC(=O)[C@H](CC(=O)O)NC(=O)[C@H]([C@@H](C)O)NC2=O)C(=O)N[C@@H](CO)C(=O)N[C@@H](CCSC)C(=O)N[C@@H]([C@@H](C)O)C(=O)N[C@@H](CC(=O)O)C(=O)N[C@@H](CC(C)C)C(=O)N[C@@H](CO)C(=O)N[C@@H](C)C(=O)N[C@@H](CC(C)C)C(=O)N[C@H](C(=O)O)CSSC[C@@H](C(=O)NCC(=O)NCC(=O)N[C@@H](CO)C(=O)N[C@@H](CCCNC(=N)N)C(=O)N[C@@H](Cc2c[nH]c3ccccc23)C(=O)O)NC(=O)[C@H]([C@@H](C)O)NC(=O)[C@H](Cc2ccc(O)cc2)NC(=O)[C@H]([C@@H](C)CC)NC(=O)[C@H](C(C)C)NC(=O)[C@H](C)NC(=O)[C@H](CCCNC(=N)N)NC1=O [[F(B20)Y]R3/I5]
fold lower binding potency towards RXFP4 compared with wild-type R3/I5 (human RXFP4 [2]; lower than wild-type R3/I5): ~ 3 fold | fold lower activation potency towards RXFP3 compared with wild-type R3/I5 (human RXFP3 [3]): ~ 3 fold | fold lower activation potency towards RXFP4 than wild-type R3/I5 (human RXFP4 [4]; lower than wild-type R3/I5): ~ 15 fold

Source: publication PMC4939597, “Mechanism for insulin-like peptide 5 distinguishing the homologous relaxin family peptide receptor 3 and 4” (Scientific Reports, 2016)
